# Assays:
# Design in all cases: species or system AML cell lines (8); Primary HTS, single concentration about 10 uM, Cell Titer Glo viability; log10 luminescence, per cent inhibition relative to cycloheximide control
# Conditions in all cases: 72 h, relative to cycloheximide control, log10 luminescence; inhibitor
# CHRF288-11 = test system: CHRF288-11
# CMK = test system: CMK
# CMS = test system: CMS
# M07e = test system: M07e
# ML-2 = test system: ML-2
# MOLM-13 = test system: MOLM-13
# MV4-11 = test system: MV4-11
# U937 = test system: U937
SMILES,CHRF288-11 %inh (CHRF288-11) [%],CMK %inh (CMK) [%],CMS %inh (CMS) [%],M07e %inh (M07e) [%],ML-2 %inh (ML-2) [%],MOLM-13 %inh (MOLM-13) [%],MV4-11 %inh (MV4-11) [%],U937 %inh (U937) [%]
"COc1cc2ncn(-c3cc(OCc4ccccc4C(F)(F)F)c(C(=O)N(C)C)s3)c2cc1OC [SJ000573307-1, U22436/129/1]",2.061,4.289,-4.162,-4.272,-1.707,15.46,8.508,7.074
"COC(=O)c1sc(-n2cnc3cc(OC)c(OC)cc32)cc1OCc1ccccc1C(F)(F)F [SJ000573308-1, U22436/119/1]",-2.151,0.3974,4.6,0.7415,-1.915,-0.8474,-1.071,29.63
"O=C1Nc2ccccc2C1=C1CCc2cc(O)ccc21 [SJ000573309-1, C1338/186/2]",18.33,25.36,4.291,0.9027,4.662,102.5,57.39,12.06
"Nc1nccc(C#Cc2cncnc2Nc2ccc(OCc3cccc(F)c3)c(Cl)c2)n1 [SJ000573310-1, U16767/158/1]",34.34,11.36,85.29,42.98,58.71,9.977,82.16,80.64
"COc1cc(Nc2ncc3c(C)nc(-c4cccc(C(F)(F)F)c4)n3n2)cc(OC)c1OC [SJ000573311-1, U19240/54/1]",12.88,13.06,21.85,19.43,7.183,85.98,65.83,12.36
"CCn1c(-c2nonc2N)nc2c(C#CC(C)(C)O)nc(OC[C@@H](N)c3ccccc3)cc21 [SJ000573312-1, LS204454-145A1 | LS204454-146A1]",122.3,11.49,24.21,29.99,7.922,19.15,7.841,37.57
"CCn1c(-c2nonc2N)nc2c(C#CC(C)(C)O)nc(OC[C@H](N)c3ccccc3)cc21 [SJ000573312-2, LS204454-145A1 | LS204454-146A1]",83.17,111.5,42.42,46.62,28.64,14.91,22.87,44.96
"CCn1c(-c2nonc2N)nc2c(C#CC(C)(C)O)nc(OCCNC)cc21 [SJ000573313-1, MS205583-134A1]",6.621,13.56,10.14,22.08,3.569,19.98,55.12,64.14
"CCn1c(-c2nonc2N)nc2c(C#CC(C)(C)O)nc(CN3CCCC3)cc21 [SJ000573314-1, MR206418-021A1]",4.422,2.979,3.945,-3.096,-0.4194,-1.58,2.964,4.345
"NS(=O)(=O)c1ccc(Nc2cc(-c3ccc(O)c(F)c3)n[nH]2)cc1 [SJ000573315-1, T350/112/30]",-4.039,-1.653,-2.048,-0.4073,0.5816,77.64,53.96,0.1443
"N#Cc1c(NC(=O)CN2CCOCC2)sc2c1CCCC2 [SJ000573317-1, ST/830472]",1.546,-5.985,0.5199,3.047,1.88,-0.7057,-2.657,3.525
"c1cnn2ncc(-c3ccnc(Nc4ccc5c(c4)OCCO5)n3)c2c1 [SJ000573318-1, U18020/87/1]",71.61,109.1,106,112.6,59.44,99.59,79.44,81.34
"COc1cc(Nc2nccc(Nc3ccc4c(C)n[nH]c4c3)n2)cc(OC)c1OC [SJ000573319-1, U17574/67/1]",80.56,114.1,87.58,71.44,29.66,98.77,77.98,62.59
"CCn1cc(-c2ccnc3[nH]ccc23)c(-c2cccc(NC(=O)Nc3ccc(OCc4ccccc4)cc3)c2)n1 [SJ000573320-1, R11459/78/21]",55.15,77.69,4.452,13.09,18.08,71.46,7.18,1.634
"Nc1ncc(-c2cccc(S(N)(=O)=O)c2)c2scc(-c3ccc(F)c(Cl)c3)c12 [SJ000573321-1, T398/119/1]",3.763,13,4.233,3.71,3.028,16.59,8.004,8.699
"COc1ccc2ncn(-c3cc(O[C@H](C)c4ccccc4C(F)(F)F)c(C(N)=O)s3)c2c1 [SJ000573322-1, U20814/199/10]",71.55,113.1,76.93,100.1,37.32,82.54,71.74,82.26
"COc1ccc(-c2coc3ncnc(N)c23)cc1 [SJ000573323-1, R6872/61/3]",1.277,0.752,-2.18,-2.594,-3.247,0.9708,-1.377,2.094
"NS(=O)(=O)c1ccc(Nc2cc(-c3cccc(O)c3)n[nH]2)cc1 [SJ000573324-1, T350/111/20]",-4.339,-2.15,0.8193,-0.9399,1.059,21.76,18.96,-2.304
"Cc1ccc(-c2cc3c(NC(=O)C4CC4)ncnc3o2)cc1 [SJ000573325-1, T337/155/21]",1.899,-5.745,1.223,5.01,1.949,-1.693,-4.319,-2.342
"NS(=O)(=O)c1cccc(Nc2cc(-c3ccc(F)cc3)n[nH]2)c1 [SJ000573326-1, T350/64/20]",-0.9199,-1.826,1.139,6.143,1.419,68.76,42.33,-2.237
"CCn1c(-c2nonc2N)nc2c(C#CC(C)(C)O)nc(O[C@@H](CN)c3ccccc3)cc21 [SJ000573327-1, MS208738-058A1]",92,85.94,81.02,123.2,56.05,95.38,81.31,77.05
"CCCN1CCC(c2ccc(Nc3nc(Nc4cc(F)ccc4C(N)=O)c4cc[nH]c4n3)c(OC)c2)CC1 [SJ000573328-1, U23536/58/1]",106.3,51.59,49,37.4,55.61,66.64,58.24,63.82
"O=C(O[C@H]1CN[C@H](C#Cc2cc3ncnc(Nc4ccc(OCc5cccc(F)c5)c(Cl)c4)c3s2)C1)N1CCOCC1 [SJ000573329-1, U20348/87/4]",79.21,8.904,8.758,-3.855,22.51,4.591,10.03,6.089

# From publication PMC6522510 (Nature Communications, 2019)
